Measured values as given in patent publication US20250066388A1, “1,3,4,7-TETRAHYDRO-2H-PYRROLO[3',2':5,6]PYRIDO[2,3-B][1,4]OXAZEPINE BCL-2 INHIBITORS” (AbbVie Inc., priority 2022, published 2025).

What was measured:
Molt-4 cells = test: Cell viability counter screen (CellTiter-Glo) in Molt-4 cells; assay type: cell-based; conditions: 24 hours, 10% Human Serum
Description: (§1) The acute lymphoblastic leukemia (ALL) human cell line RS4;11 (ATCC, Manassas VA) was used as the primary human cell line to assess the cellular activity of compound of the present Examples in vitro and their efficacy in vivo. […] The acute lymphoblastic leukemia cell line Molt-4, which is derived from immature T-lymphoid cells (T-ALL), was used as a counter screen assay.
(§2) 3000 Cells (0.1×10^6/mL) were seeded in each well of 384-well plate and were treated for 24 hours in a humidified chamber with 5% CO2. Cell viability was determined by CellTiter-Glo as described by the manufacturer's instructions (Promega Corporation, Madison, WI, USA).

Bcl-xL protein = Bcl-xL protein (Homo sapiens (Human), UniProt Q07817); test: TR-FRET binding assay, Bcl-xL; conditions: F-Bak peptide probe
RS4;11 cells = test: Cell viability assay (CellTiter-Glo) in RS4;11 cells; assay type: cell-based; conditions: 24 hours, 10% Human Serum
Description: as §1, §2

Bcl-2 protein = Bcl-2 protein (Homo sapiens (Human), UniProt P10415); test: TR-FRET binding assay, Bcl-2; conditions: F-Bak peptide probe, GST-Bcl-2
Sequence of Bcl-2 protein (P10415 other isoform, or with tags, fused parts or gaps): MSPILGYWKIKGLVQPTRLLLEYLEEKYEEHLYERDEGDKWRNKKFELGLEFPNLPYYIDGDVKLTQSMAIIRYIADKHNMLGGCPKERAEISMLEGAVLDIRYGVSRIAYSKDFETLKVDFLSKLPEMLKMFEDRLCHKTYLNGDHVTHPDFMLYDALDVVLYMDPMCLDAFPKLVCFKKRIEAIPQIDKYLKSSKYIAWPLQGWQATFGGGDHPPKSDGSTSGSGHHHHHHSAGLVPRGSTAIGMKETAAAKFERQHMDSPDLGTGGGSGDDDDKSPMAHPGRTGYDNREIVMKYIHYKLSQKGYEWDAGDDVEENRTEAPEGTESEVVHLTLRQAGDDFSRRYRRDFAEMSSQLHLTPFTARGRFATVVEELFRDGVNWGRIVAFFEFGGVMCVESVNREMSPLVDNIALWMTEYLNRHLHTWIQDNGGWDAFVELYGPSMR

Sequence of Bcl-xL protein (Q07817 other isoform, or with tags, fused parts or gaps): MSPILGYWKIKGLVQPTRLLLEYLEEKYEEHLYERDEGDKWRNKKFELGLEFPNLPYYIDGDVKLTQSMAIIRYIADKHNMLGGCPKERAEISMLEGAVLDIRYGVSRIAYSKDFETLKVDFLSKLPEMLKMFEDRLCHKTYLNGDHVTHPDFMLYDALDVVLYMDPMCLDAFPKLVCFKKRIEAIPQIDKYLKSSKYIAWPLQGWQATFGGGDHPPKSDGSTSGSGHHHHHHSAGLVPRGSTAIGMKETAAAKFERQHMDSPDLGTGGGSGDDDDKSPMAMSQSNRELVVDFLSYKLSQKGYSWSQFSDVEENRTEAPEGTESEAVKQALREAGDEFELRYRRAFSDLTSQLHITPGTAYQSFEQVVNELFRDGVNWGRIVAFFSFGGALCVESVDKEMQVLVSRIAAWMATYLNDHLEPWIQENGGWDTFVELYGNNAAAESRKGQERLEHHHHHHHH

Row | SMILES | EC50 (Molt-4 cells) | Ki (Bcl-xL protein) | EC50 (RS4;11 cells) | Ki (Bcl-2 protein)
1 | CO[C@H]1C[C@H](CNc2ccc(S(=O)(=O)NC(=O)c3ccc(N4CCN5CC6=C(c7ccc(Cl)cc7)CC(C)(C)C[C@H]6OCCCOC[C@@H]5C4)cc3N3CCCOc4nc5[nH]ccc5cc43)cc2[N+](=O)[O-])C1 [Example 41, 4-((4aS,10aR)-14-(4-chlorophenyl)-12,12-dimethyl-1,2,4a,5,8,9,10a,11,13,15-decahydro-7H,12H-benzo[f]pyrazino[2,1-c][1,8]dioxa[4]azacycloundecin-3(4H)-yl)-2-(3,4-dihydro-2H-pyrrolo[3′,2′:5,6]pyrido[2,3-b][1,4]oxazepin-1(7H)-yl)-N-((4-((((1r,3r)-3-methoxycyclobutyl)methyl)amino)-3-nitrophenyl)sulfonyl)benzamide] | > 10000 nM | 25.2 nM | 3.93 nM | 0.224 nM
2 | CO[C@H]1C[C@@H](CNc2ccc(S(=O)(=O)NC(=O)c3ccc(N4CCN5CC6=C(c7ccc(Cl)cc7)CC(C)(C)C[C@H]6OCCCOC[C@@H]5C4)cc3N3CCCOc4nc5[nH]ccc5cc43)cc2[N+](=O)[O-])C1 [Example 24, 4-((4aS,10aR)-14-(4-chlorophenyl)-12,12-dimethyl-1,2,4a,5,8,9,10a,11,13,15-decahydro-7H,12H-benzo[f]pyrazino[2,1-c][1,8]dioxa[4]azacycloundecin-3(4H)-yl)-2-(3,4-dihydro-2H-pyrrolo[3′,2′:5,6]pyrido[2,3-b][1,4]oxazepin-1(7H)-yl)-N-((4-((((1s,3s)-3-methoxycyclobutyl)methyl)amino)-3-nitrophenyl)sulfonyl)benzamide] | > 10000 nM | 10.3 nM | 4.9 nM | 0.248 nM
3 | CN1CCC(Nc2ccc(S(=O)(=O)NC(=O)c3ccc(N4CCN5CC6=C(c7ccc(Cl)cc7)CC(C)(C)C[C@H]6OCCCOC[C@@H]5C4)cc3N3CCCOc4nc5[nH]ccc5cc43)cc2[N+](=O)[O-])CC1 [Example 31, 4-((4aS,10aR)-14-(4-chlorophenyl)-12,12-dimethyl-1,2,4a,5,8,9,10a,11,13,15-decahydro-7H,12H-benzo[f]pyrazino[2,1-c][1,8]dioxa[4]azacycloundecin-3(4H)-yl)-2-(3,4-dihydro-2H-pyrrolo[3′,2′:5,6]pyrido[2,3-b][1,4]oxazepin-1(7H)-yl)-N-((4-((1-methylpiperidin-4-yl)amino)-3-nitrophenyl)sulfonyl)benzamide] | 1220 nM | 5.75 nM | 3.24 nM | 0.51 nM
4 | CC1(C)CC(c2ccc(Cl)cc2)=C2CN3CCN(c4ccc(C(=O)NS(=O)(=O)c5ccc(NCC6(F)CCN(C7COC7)CC6)c([N+](=O)[O-])c5)c(N5CCCOc6nc7[nH]ccc7cc65)c4)C[C@H]3COCCCO[C@@H]2C1 [Example 39, 4-((4aS,10aR)-14-(4-chlorophenyl)-12,12-dimethyl-1,2,4a,5,8,9,10a,11,13,15-decahydro-7H,12H-benzo[f]pyrazino[2,1-c][1,8]dioxa[4]azacycloundecin-3(4H)-yl)-2-(3,4-dihydro-2H-pyrrolo[3′,2′:5,6]pyrido[2,3-b][1,4]oxazepin-1(7H)-yl)-N-((4-(((4-fluoro-1-(oxetan-3-yl)piperidin-4-yl)methyl)amino)-3-nitrophenyl)sulfonyl)benzamide] | 453 nM | 5.25 nM | 1.66 nM | 0.194 nM
5 | CC1(C)CC(c2ccc(Cl)cc2)=C2CN3CCN(c4ccc(C(=O)NS(=O)(=O)c5ccc(NC[C@H]6CC[C@@](C)(O)CC6)c([N+](=O)[O-])c5)c(N5CCCOc6nc7[nH]ccc7cc65)c4)C[C@H]3COCCCO[C@@H]2C1 [Example 36, 4-((4aS,10aR)-14-(4-chlorophenyl)-12,12-dimethyl-1,2,4a,5,8,9,10a,11,13,15-decahydro-7H,12H-benzo[f]pyrazino[2,1-c][1,8]dioxa[4]azacycloundecin-3(4H)-yl)-2-(3,4-dihydro-2H-pyrrolo[3′,2′:5,6]pyrido[2,3-b][1,4]oxazepin-1(7H)-yl)-N-((4-((((1s,4s)-4-hydroxy-4-methylcyclohexyl)methyl)amino)-3-nitrophenyl)sulfonyl)benzamide] | 117 nM | 11.1 nM | 1.47 nM | 0.0607 nM
6 | CC1(C)CC(c2ccc(Cl)cc2)=C2CN3CCN(c4ccc(C(=O)NS(=O)(=O)c5ccc(NC[C@H]6CC[C@](O)(CF)CC6)c([N+](=O)[O-])c5)c(N5CCCOc6nc7[nH]ccc7cc65)c4)C[C@H]3COCCCO[C@@H]2C1 [Example 14, 4-((4aS,10aR)-14-(4-chlorophenyl)-12,12-dimethyl-1,2,4a,5,8,9,10a,11,13,15-decahydro-7H,12H-benzo[f]pyrazino[2,1-c][1,8]dioxa[4]azacycloundecin-3(4H)-yl)-2-(3,4-dihydro-2H-pyrrolo[3′,2′:5,6]pyrido[2,3-b][1,4]oxazepin-1(7H)-yl)-N-((4-((((1s,4s)-4-(fluoromethyl)-4-hydroxycyclohexyl)methyl)amino)-3-nitrophenyl)sulfonyl)benzamide] | 1740 nM | 20.8 nM | 1.64 nM | 0.24 nM
7 | CC1(C)CC(c2ccc(Cl)cc2)=C2CN3CCN(c4ccc(C(=O)NS(=O)(=O)c5ccc(NC[C@H]6C[C@](O)(C7CCC7)C6)c([N+](=O)[O-])c5)c(N5CCCOc6nc7[nH]ccc7cc65)c4)C[C@H]3COCCCO[C@@H]2C1 [Example 15, 4-((4aS,10aR)-14-(4-chlorophenyl)-12,12-dimethyl-1,2,4a,5,8,9,10a,11,13,15-decahydro-7H,12H-benzo[f]pyrazino[2,1-c][1,8]dioxa[4]azacycloundecin-3(4H)-yl)-2-(3,4-dihydro-2H-pyrrolo[3′,2′:5,6]pyrido[2,3-b][1,4]oxazepin-1(7H)-yl)-N-((4-((((1s,3s)-1-hydroxy-[1,1′-bi(cyclobutan)]-3-yl)methyl)amino)-3-nitrophenyl)sulfonyl)benzamide] | 2550 nM | 13.9 nM | 5.64 nM | 0.552 nM
8 | CC1(C)CC(c2ccc(Cl)cc2)=C2CN3CCN(c4ccc(C(=O)NS(=O)(=O)c5ccc(NCC6(O)CCOCC6)c([N+](=O)[O-])c5)c(N5CCCOc6nc7[nH]ccc7cc65)c4)C[C@H]3COCCCO[C@@H]2C1 [Example 18, 4-((4aS,10aR)-14-(4-chlorophenyl)-12,12-dimethyl-1,2,4a,5,8,9,10a,11,13,15-decahydro-7H,12H-benzo[f]pyrazino[2,1-c][1,8]dioxa[4]azacycloundecin-3(4H)-yl)-2-(3,4-dihydro-2H-pyrrolo[3′,2′:5,6]pyrido[2,3-b][1,4]oxazepin-1(7H)-yl)-N-((4-(((4-hydroxytetrahydro-2H-pyran-4-yl)methyl)amino)-3-nitrophenyl)sulfonyl)benzamide] | 426 nM | 8.31 nM | 1.43 nM | 0.223 nM
9 | CC1(C)CC(c2ccc(Cl)cc2)=C2CN3CCN(c4ccc(C(=O)NS(=O)(=O)c5ccc(NC[C@H]6CC[C@](C)(O)CO6)c([N+](=O)[O-])c5)c(N5CCCOc6nc7[nH]ccc7cc65)c4)C[C@H]3COCCCO[C@@H]2C1 [Example 2, 4-((4aS,10aR)-14-(4-chlorophenyl)-12,12-dimethyl-1,2,4a,5,8,9,10a,11,13,15-decahydro-7H,12H-benzo[f]pyrazino[2,1-c][1,8]dioxa[4]azacycloundecin-3(4H)-yl)-2-(3,4-dihydro-2H-pyrrolo[3′,2′:5,6]pyrido[2,3-b][1,4]oxazepin-1(7H)-yl)-N-((4-((((2R,5S)-5-hydroxy-5-methyltetrahydro-2H-pyran-2-yl)methyl)amino)-3-nitrophenyl)sulfonyl)benzamide] | 1220 nM | 9.3 nM | 0.651 nM | 0.0489 nM
10 | CC1(C)CC(c2ccc(Cl)cc2)=C2CN3CCN(c4ccc(C(=O)NS(=O)(=O)c5ccc(NC[C@H]6CC[C@H](N7CCOCC7)CC6)c([N+](=O)[O-])c5)c(N5CCCOc6nc7[nH]ccc7cc65)c4)C[C@H]3COCCCO[C@@H]2C1 [Example 28, 4-((4aS,10aR)-14-(4-chlorophenyl)-12,12-dimethyl-1,2,4a,5,8,9,10a,11,13,15-decahydro-7H,12H-benzo[f]pyrazino[2,1-c][1,8]dioxa[4]azacycloundecin-3(4H)-yl)-2-(3,4-dihydro-2H-pyrrolo[3′,2′:5,6]pyrido[2,3-b][1,4]oxazepin-1(7H)-yl)-N-((4-((((1r,4r)-4-morpholinocyclohexyl)methyl)amino)-3-nitrophenyl)sulfonyl)benzamide] | 274 nM | 4.71 nM | 0.862 nM | 0.833 nM
11 | CC1(C)CC(c2ccc(Cl)cc2)=C2CN3CCN(c4ccc(C(=O)NS(=O)(=O)c5ccc(NCC6(O)COC6)c([N+](=O)[O-])c5)c(N5CCCOc6nc7[nH]ccc7cc65)c4)C[C@H]3COCCCO[C@@H]2C1 [Example 17, 4-((4aS,10aR)-14-(4-chlorophenyl)-12,12-dimethyl-1,2,4a,5,8,9,10a,11,13,15-decahydro-7H,12H-benzo[f]pyrazino[2,1-c][1,8]dioxa[4]azacycloundecin-3(4H)-yl)-2-(3,4-dihydro-2H-pyrrolo[3′,2′:5,6]pyrido[2,3-b][1,4]oxazepin-1(7H)-yl)-N-((4-(((3-hydroxyoxetan-3-yl)methyl)amino)-3-nitrophenyl)sulfonyl)benzamide] | 723 nM | 6.31 nM | 2.82 nM | 0.761 nM
